The source made the active and inactive calls. The rule behind the calls is not given here.
Key:
Glioblastoma cell line [1] = experiment: Cytotoxicity against human glioblastoma cell P1S cells assessed as reduction in cell viability upto 72 hrs by MTT assay; format: functional, cell-based; conditions: dose microM <=30, time hrs <=72
A 172 [2] = experiment: Induction of cell cycle arrest in human A172 cells assessed as accumulation at G1/S phase measured by increase in cyclin E expression upto 10 uM after 24 hrs by Western blot analysis; format: functional, cell-based; conditions: dose microM <=10, time 24.0 hrs
U-87 MG [3] = experiment: Antiproliferation activity against TMZ resistant human U-87 MG R-50 cells assessed as growth inhibition at 3 uM by MTT assay; format: functional, cell-based; conditions: U-87MG ATCC
Glioblastoma cell line [4] = experiment: Cytotoxicity against human glioblastoma cell P3 cells assessed as reduction in cell viability upto 72 hrs by MTT assay; format: functional, cell-based; conditions: dose microM <=30, time hrs <=72
A 172 [5] = experiment: Cytotoxicity against TMZ-resistant human A 172 cells assessed as reduction in cell viability upto 30 uM by MTT assay; format: functional, cell-based; conditions: dose microM <=30, time hrs <=72, TDE = time-dependent effect
Glioblastoma cell line [6] = experiment: Cytotoxicity against human glioblastoma cell P3 cells assessed as reduction in cell viability upto 30 uM by MTT assay; format: functional, cell-based; conditions: dose microM <=30, time hrs <=72, TDE = time-dependent effect
Histone deacetylase 8 = target: T1, Histone deacetylase 8 (Homo sapiens, UniProt Q9BY41); experiment: Inhibition of human recombinant HDAC8 using [RHKK(Ac)] fluorogenic substrate
T1 sequence (Q9BY41 whole entry): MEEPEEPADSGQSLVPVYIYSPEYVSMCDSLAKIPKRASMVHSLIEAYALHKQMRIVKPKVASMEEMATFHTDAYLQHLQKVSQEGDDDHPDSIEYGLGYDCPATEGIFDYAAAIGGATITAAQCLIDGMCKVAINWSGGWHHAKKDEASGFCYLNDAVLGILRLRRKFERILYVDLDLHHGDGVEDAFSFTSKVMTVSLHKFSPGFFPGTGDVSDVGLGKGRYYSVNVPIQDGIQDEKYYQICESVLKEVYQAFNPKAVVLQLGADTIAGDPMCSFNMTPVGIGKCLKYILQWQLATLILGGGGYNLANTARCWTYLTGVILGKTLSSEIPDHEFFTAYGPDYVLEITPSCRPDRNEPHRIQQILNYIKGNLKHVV

A 172 [7] = experiment: Induction of apoptosis in human A 172 cells assessed as upregulation of cleaved PARP at 3 uM after 24 hrs by western blot analysis; format: functional, cell-based
A 172 [8] = experiment: Induction of cell cycle arrest in human A 172 cells assessed as accumulation at G0/G1 phase by propidium iodide staining based flow cytometric analysis; format: functional; conditions: dose microM <=10
U-87 MG [9] = experiment: Antiproliferation activity against human U-87 MG cells assessed as growth inhibition measured after 1 hr by MTT assay; format: functional, cell-based, U-87MG ATCC
[10] = Permeability of compound by PAMPA-BBB assay
A 172 [11] = experiment: Cytotoxicity against TMZ-resistant human A 172 cells assessed as reduction in cell viability upto 72 hrs by MTT assay; format: functional, cell-based; conditions: dose microM <=30, time hrs <=72
Glioblastoma cell line [12] = experiment: Cytotoxicity against human glioblastoma cell P1S cells assessed as reduction in cell viability upto 30 uM by MTT assay; format: functional, cell-based; conditions: dose microM <=30, time hrs <=72, TDE = time-dependent effect
A 172 [13] = experiment: Effect on cyclin B1 expression in human A 172 cells upto 10 uM after 24 hrs by Western blot analysis; format: functional, cell-based; conditions: dose microM <=10, time 24.0 hrs
Glioblastoma cell line [14] = experiment: Cytotoxicity against TMZ-resistant human glioblastoma cell P5 cells assessed as reduction in cell viability upto 30 uM by MTT assay; format: functional, cell-based; conditions: dose microM <=30, time hrs <=72, TDE = time-dependent effect
[15] = target: Cyclin-dependent kinase 1/cyclin B1 (Homo sapiens) (UniProt P06493+P14635); experiment: Inhibition of CDK1/Cyclin B interaction in human A 172 cells assessed as CDK1 acetylation at 3 uM for 24 hrs by Western blot analysis; format: cell-based
Histone deacetylase 3 = Histone deacetylase 3 (Homo sapiens, UniProt O15379); experiment: Inhibition of human recombinant HDAC3 using [RHKK(Ac)] fluorogenic substrate
Glioblastoma cell line [16] = experiment: Cytotoxicity against TMZ-resistant human glioblastoma cell P3 cells assessed as reduction in cell viability upto 72 hrs by MTT assay; format: functional, cell-based; conditions: dose microM <=30, time hrs <=72
A 172 [17] = experiment: Downregulation of PCNA expression in human A 172 cells upto 10 uM measured after 24 hrs by Western blot analysis; format: functional, cell-based; conditions: dose microM <=10, time 24.0 hrs
A 172 [18] = experiment: Induction of cell cycle arrest in human A 172 cells assessed as increase in histone alpha-tubulin-K40 acetylation upto 10 uM for 24 hrs by Western blot analysis; format: functional, cell-based; conditions: dose microM <=10, time 24.0 hrs
A 172 [19] = experiment: Induction of apoptosis in human A 172 cells assessed as upregulation of activated caspase 3 protein at 3 uM after 24 hrs by western blot analysis; format: functional, cell-based
U-87 MG [20] = experiment: Antiproliferation activity against human U-87 MG cells assessed as growth inhibition at 10 uM after 3 days by MTT assay; format: functional, U-87MG ATCC; conditions: 72 h, time 3 day
Glioblastoma cell line [21] = experiment: Cytotoxicity against TMZ-resistant human glioblastoma cell P5 cells assessed as reduction in cell viability upto 72 hrs by MTT assay; format: functional, cell-based; conditions: dose microM <=30, time hrs <=72
A 172 [22] = experiment: Induction of cell cycle arrest in human A 172 cells assessed as sub-G1 population upto 10 uM after 2 days by flow cytometry/PI staining assay; format: functional, cell-based; conditions: dose microM <=10, time 2.0 day
Histone deacetylase 1 = Histone deacetylase 1 (Homo sapiens, UniProt Q13547); experiment: Inhibition of human recombinant HDAC1 expressed in baculovirus infected insect cells using [RHKK(Ac)] fluorogenic substrate
Glioblastoma cell line [23] = experiment: Cytotoxicity against human glioblastoma cell P5 cells assessed as reduction in cell viability upto 72 hrs by MTT assay; format: functional, cell-based; conditions: dose microM <=30, time hrs <=72
A 172 [24] = experiment: Induction of cell cycle arrest in human A 172 cells assessed as increase in histone H3-S10 dephosphorylation upto 10 uM for 24 hrs by Western blot analysis; format: functional, cell-based; conditions: dose microM <=10, time 24.0 hrs
Glioblastoma cell line [25] = experiment: Cytotoxicity against human glioblastoma cell P5 cells assessed as reduction in cell viability upto 30 uM by MTT assay; format: functional, cell-based; conditions: dose microM <=30, time hrs <=72, TDE = time-dependent effect
A 172 [26] = experiment: Induction of cell cycle arrest in human A 172 cells assessed as increase in histone H3-K9/K14 acetylation upto 10 uM for 24 hrs by Western blot analysis; format: functional, cell-based; conditions: dose microM <=10, time 24.0 hrs
Glioblastoma cell line [27] = experiment: Antiproliferation activity against TMZ resistant human glioblastoma cell P1S assessed as growth inhibition at 3 uM by MTT assay; format: functional
U-87 MG [28] = experiment: Cytotoxicity against TMZ-resistant human U-87 MG cells assessed as reduction in cell viability upto 30 uM by MTT assay; format: functional, cell-based; conditions: U-87MG ATCC, dose microM <=30, time hrs <=72, TDE = time-dependent effect
U-87 MG [29] = experiment: Cytotoxicity against TMZ-resistant human U-87 MG cells assessed as reduction in cell viability upto 72 hrs by MTT assay; format: functional, cell-based; conditions: U-87MG ATCC, dose microM <=30, time hrs <=72
A 172 [30] = experiment: Cytotoxicity against human A 172 cells assessed as reduction in cell viability upto 30 uM by MTT assay; format: functional, cell-based; conditions: dose microM <=30, time hrs <=72, TDE = time-dependent effect
Glioblastoma cell line [31] = experiment: Cytotoxicity against TMZ-resistant human glioblastoma cell P3 cells assessed as reduction in cell viability upto 30 uM by MTT assay; format: functional, cell-based; conditions: dose microM <=30, time hrs <=72, TDE = time-dependent effect
A 172 [32] = experiment: Induction of cell cycle arrest in human A 172 cells assessed as accumulation at G2/M phase by propidium iodide staining based flow cytometric analysis; format: functional; conditions: dose microM <=10
U-87 MG [33] = experiment: Cytotoxicity against human U-87 MG cells assessed as reduction in cell viability upto 30 uM by MTT assay; format: functional, cell-based; conditions: U-87MG ATCC, dose microM <=30, time hrs <=72, TDE = time-dependent effect
A 172 [34] = experiment: Cytotoxicity against human A 172 cells assessed as reduction in cell viability upto 72 hrs by MTT assay; format: functional, cell-based; conditions: dose microM <=30, time hrs <=72
U-87 MG [35] = experiment: Cytotoxicity against human U-87 MG cells assessed as reduction in cell viability upto 72 hrs by MTT assay; format: functional, cell-based; conditions: U-87MG ATCC, dose microM <=30, time hrs <=72

Sequence of Histone deacetylase 3 (O15379 whole entry): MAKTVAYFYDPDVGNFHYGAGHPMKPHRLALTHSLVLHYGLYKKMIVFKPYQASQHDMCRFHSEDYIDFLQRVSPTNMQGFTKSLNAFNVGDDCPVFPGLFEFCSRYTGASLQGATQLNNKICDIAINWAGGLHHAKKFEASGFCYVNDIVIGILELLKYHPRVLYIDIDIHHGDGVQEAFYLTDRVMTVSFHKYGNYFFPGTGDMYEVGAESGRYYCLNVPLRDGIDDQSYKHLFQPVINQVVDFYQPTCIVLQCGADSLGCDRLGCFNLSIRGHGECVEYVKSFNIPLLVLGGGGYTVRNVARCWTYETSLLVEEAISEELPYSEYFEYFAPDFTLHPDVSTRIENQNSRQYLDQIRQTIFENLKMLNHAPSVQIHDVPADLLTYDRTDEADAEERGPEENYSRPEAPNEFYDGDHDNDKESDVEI
Sequence of Cyclin-dependent kinase 1/cyclin B1 (Homo sapiens) (P06493 whole entry, looked up): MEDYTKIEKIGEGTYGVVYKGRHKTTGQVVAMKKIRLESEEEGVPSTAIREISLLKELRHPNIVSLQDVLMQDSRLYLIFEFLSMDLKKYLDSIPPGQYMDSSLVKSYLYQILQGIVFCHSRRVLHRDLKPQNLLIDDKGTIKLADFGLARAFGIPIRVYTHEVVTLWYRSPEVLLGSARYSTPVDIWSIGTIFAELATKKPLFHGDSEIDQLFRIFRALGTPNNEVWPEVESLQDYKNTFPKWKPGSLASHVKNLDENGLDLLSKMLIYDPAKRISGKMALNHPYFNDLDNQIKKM
Sequence of Cyclin-dependent kinase 1/cyclin B1 (Homo sapiens) (P14635 whole entry, looked up): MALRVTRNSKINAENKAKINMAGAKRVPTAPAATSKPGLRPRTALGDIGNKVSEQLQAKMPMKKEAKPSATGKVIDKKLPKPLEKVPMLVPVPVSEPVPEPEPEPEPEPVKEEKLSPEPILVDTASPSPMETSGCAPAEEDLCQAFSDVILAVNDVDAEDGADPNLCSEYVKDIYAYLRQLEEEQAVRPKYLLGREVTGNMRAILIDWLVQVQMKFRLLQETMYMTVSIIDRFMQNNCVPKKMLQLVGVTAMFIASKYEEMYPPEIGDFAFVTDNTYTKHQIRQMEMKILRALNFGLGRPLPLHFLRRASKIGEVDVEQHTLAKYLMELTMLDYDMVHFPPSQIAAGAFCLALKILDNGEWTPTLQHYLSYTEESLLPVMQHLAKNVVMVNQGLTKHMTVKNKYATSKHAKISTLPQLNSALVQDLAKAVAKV
Sequence of Histone deacetylase 1 (Q13547 whole entry): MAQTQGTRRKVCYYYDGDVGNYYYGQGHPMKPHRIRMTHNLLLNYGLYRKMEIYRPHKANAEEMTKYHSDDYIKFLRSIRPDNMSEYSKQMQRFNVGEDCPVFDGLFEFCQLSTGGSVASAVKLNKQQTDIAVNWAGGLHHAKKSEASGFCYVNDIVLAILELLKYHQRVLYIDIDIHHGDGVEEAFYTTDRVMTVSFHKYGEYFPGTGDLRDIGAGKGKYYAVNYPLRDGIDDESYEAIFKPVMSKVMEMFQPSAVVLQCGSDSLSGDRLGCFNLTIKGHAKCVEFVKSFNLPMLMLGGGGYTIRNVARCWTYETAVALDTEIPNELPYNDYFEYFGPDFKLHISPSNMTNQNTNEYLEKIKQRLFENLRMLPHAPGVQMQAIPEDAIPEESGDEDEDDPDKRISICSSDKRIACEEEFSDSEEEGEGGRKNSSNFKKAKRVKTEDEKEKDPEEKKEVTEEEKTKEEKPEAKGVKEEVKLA

For CC12CC3CC(C)(C1)CC(NCc1ccc(NC(=O)CCCCCCC(=O)NO)cc1)(C3)C2, the Activity (Glioblastoma cell line [1]) was “Dose-Dependent Effect”, the Activity (A 172 [2]) was “Active” and the Activity (U-87 MG [3]) was “inactive”. The Activity (Glioblastoma cell line [4]) was “Dose-Dependent Effect”, the Activity (A 172 [5]) was “Tde” and the Activity (Glioblastoma cell line [6]) was “Tde”. For the same molecule, the IC50 (Histone deacetylase 8) was 638 nM, the Activity (A 172 [7]) was “Active” and the Activity (A 172 [8]) was “Dose-Dependent Effect”. For the same molecule, the IC50 (U-87 MG [9]) was 2950 nM, the Papp [10] was 339 ×10⁻⁶ cm/s and the Activity (A 172 [11]) was “Dose-Dependent Effect”. The Activity (Glioblastoma cell line [12]) was “Tde”, the Activity (A 172 [13]) was “inactive” and the Activity (Glioblastoma cell line [14]) was “Tde”. For the same molecule, the Activity [15] was “Active”, the IC50 (Histone deacetylase 3) was 806 nM and the Activity (Glioblastoma cell line [16]) was “Dose-Dependent Effect”. For the same molecule, the Activity (A 172 [17]) was “inactive”, the Activity (A 172 [18]) was “Active” and the Activity (A 172 [19]) was “Active”. For the same molecule, the inhibition at 10 µM (U-87 MG [20]) was 90%, the Activity (Glioblastoma cell line [21]) was “Dose-Dependent Effect” and the Activity (A 172 [22]) was “Active”. The IC50 (Histone deacetylase 1) was 347 nM, the Activity (Glioblastoma cell line [23]) was “Dose-Dependent Effect” and the Activity (A 172 [24]) was “Active”. The Activity (Glioblastoma cell line [25]) was “Tde”, the Activity (A 172 [26]) was “Active” and the Activity (Glioblastoma cell line [27]) was “inactive”. The Activity (U-87 MG [28]) was “Tde”, the Activity (U-87 MG [29]) was “Dose-Dependent Effect” and the Activity (A 172 [30]) was “Tde”. The Activity (Glioblastoma cell line [31]) was “Tde”, the Activity (A 172 [32]) was “Dose-Dependent Effect” and the Activity (U-87 MG [33]) was “Tde”. The Activity (A 172 [34]) was “Dose-Dependent Effect” and the Activity (U-87 MG [35]) was “Dose-Dependent Effect”.
